Data published in patent publication US5807535A, “Metal complexes of hydroxyaryl containing aminocarboxylic acid chelating agents” (Australian Nuclear Science & Technology Organisation, priority 1992, dated 1998).
Where two headings read alike, the source gives them in different places.

Test: Biodistribution of 99mTc complexes in rats
Type: in vivo, Australian Albino Wistar Rats
Conditions: for tissue uptake at 0.5 min / tissue uptake at 1 min / tissue uptake at 0.05 h / tissue uptake at 5 min / tissue uptake at 10 min: rat; for tissue uptake at 0.5 min: 30 sec
Description: A typical method of radiolabelling of the chelator was achieved by dissolving the chelator in a basic solution of saline. The pH was then adjusted to approx. 6 with HCl. Excess stannous chloride was added to the resultant solution followed by one equivalent volume of sodium ^99m TcO4 (10-50 mCi/ml). Final concentration of the chelator was approx. 1 mg/ml. The efficacy of labelling was determined by ITLC-SG. For each product only one main radiochemical species was observed. Each complex was diluted to 15 μCi/100 μl with saline. […] (See FIGS. 1A and 1B).
Selected data from biodistribution results of technetium-99m complexes of No. 1, No. 2 and No 4 in the liver, kidney and blood at 3 minutes is tabulated below.

[1] = blood, rats, read-out: biodistribution blood
[2] = bone, rats, read-out: biodistribution bone
[3] = brain, rats, read-out: biodistribution brain
[4] = eyes, rats, read-out: biodistribution eyes
[5] = heart, rats, read-out: biodistribution heart
[6] = kidneys, rats, read-out: biodistribution kidneys
[7] = liver, rats, read-out: biodistribution liver
[8] = lungs, rats, read-out: biodistribution lungs
[9] = muscle, rats, read-out: biodistribution muscle
[10] = pancreas, rats, read-out: biodistribution pancreas
[11] = skin, rats, read-out: biodistribution skin
[12] = spleen, rats, read-out: biodistribution spleen
[13] = stomach, rats, read-out: biodistribution stomach
[14] = tail, rats, read-out: biodistribution tail
[15] = thymus, rats, read-out: biodistribution thymus
[16] = thyroid, rats, read-out: biodistribution thyroid
[17] = total git, rats, read-out: biodistribution tot GIT

## O=C(O)CN(CCN(CC(=O)O)CC(=O)Nc1ccc(Cl)cc1O)CC(=O)Nc1ccc(Cl)cc1O [Compound 2]
Tables 2 and 4
  hepatobiliary passage: specifically traverse the hepatobiliary system
[1]
  tissue uptake at 0.5 min: 2.79 %ID/g
  tissue uptake at 1 min: 2.77 %ID/g
  tissue uptake at 5 min: 0.94 %ID/g
  tissue uptake at 10 min: 0.77 %ID/g
blood, rats, 3 minutes, selected data, read-out: Blood
  tissue uptake at 0.05 h: 1.32 %ID/g
[2]
  tissue uptake at 0.5 min: 0.34 %ID/g
  tissue uptake at 1 min: 0.37 %ID/g
  tissue uptake at 5 min: 0.19 %ID/g
  tissue uptake at 10 min: 0.15 %ID/g
bone, rats, 3 min, read-out: biodistribution bone
  tissue uptake at 0.05 h: 0.25 %ID/g
[3]
  tissue uptake at 0.5 min: 0.14 %ID/g
  tissue uptake at 1 min: 0.09 %ID/g
  tissue uptake at 5 min: 0.04 %ID/g
  tissue uptake at 10 min: 0.03 %ID/g
brain, rats, 3 min, read-out: biodistribution brain
  tissue uptake at 0.05 h: 0.06 %ID/g
[4]
  tissue uptake at 0.5 min: 0.11 %ID/g
  tissue uptake at 1 min: 0.15 %ID/g
  tissue uptake at 5 min: 0.1 %ID/g
  tissue uptake at 10 min: 0.1 %ID/g
eyes, rats, 3 min, read-out: biodistribution eyes
  tissue uptake at 0.05 h: 0.12 %ID/g
[5]
  tissue uptake at 0.5 min: 0.87 %ID/g
  tissue uptake at 1 min: 0.93 %ID/g
  tissue uptake at 5 min: 0.36 %ID/g
  tissue uptake at 10 min: 0.28 %ID/g
heart, rats, 3 min, read-out: biodistribution heart
  tissue uptake at 0.05 h: 0.46 %ID/g
kidney, rats, 3 minutes, selected data, read-out: Kidney
  tissue uptake at 0.05 h: 8.9 %ID/g
[6]
  tissue uptake at 0.5 min: 6.42 %ID/g
  tissue uptake at 1 min: 8.37 %ID/g
  tissue uptake at 5 min: 7.26 %ID/g
  tissue uptake at 10 min: 3.35 %ID/g
kidneys, rats, 3 min, read-out: biodistribution kidneys
  tissue uptake at 0.05 h: 8.9 %ID/g
[7]
  tissue uptake at 0.5 min: 4.61 %ID/g
  tissue uptake at 1 min: 6.28 %ID/g
  tissue uptake at 5 min: 3.93 %ID/g
  tissue uptake at 10 min: 1.89 %ID/g
liver, rats, 3 minutes, selected data, read-out: Liver
  tissue uptake at 0.05 h: 5.93 %ID/g
[8]
  tissue uptake at 0.5 min: 1.2 %ID/g
  tissue uptake at 1 min: 1.17 %ID/g
  tissue uptake at 5 min: 0.59 %ID/g
  tissue uptake at 10 min: 0.48 %ID/g
lungs, rats, 3 min, read-out: biodistribution lungs
  tissue uptake at 0.05 h: 0.79 %ID/g
[9]
  tissue uptake at 0.5 min: 0.22 %ID/g
  tissue uptake at 1 min: 0.24 %ID/g
  tissue uptake at 5 min: 0.16 %ID/g
  tissue uptake at 10 min: 0.11 %ID/g
muscle, rats, 3 min, read-out: biodistribution muscle
  tissue uptake at 0.05 h: 0.2 %ID/g
[10]
  tissue uptake at 0.5 min: 0.49 %ID/g
  tissue uptake at 1 min: 0.66 %ID/g
  tissue uptake at 5 min: 0.52 %ID/g
  tissue uptake at 10 min: 0.27 %ID/g
pancreas, rats, 3 min, read-out: biodistribution pancreas
  tissue uptake at 0.05 h: 0.44 %ID/g
[11]
  tissue uptake at 0.5 min: 0.29 %ID/g
  tissue uptake at 1 min: 0.45 %ID/g
  tissue uptake at 5 min: 0.35 %ID/g
  tissue uptake at 10 min: 0.33 %ID/g
skin, rats, 3 min, read-out: biodistribution skin
  tissue uptake at 0.05 h: 0.42 %ID/g
[12]
  tissue uptake at 0.5 min: 0.62 %ID/g
  tissue uptake at 1 min: 0.58 %ID/g
  tissue uptake at 5 min: 0.25 %ID/g
  tissue uptake at 10 min: 0.16 %ID/g
spleen, rats, 3 min, read-out: biodistribution spleen
  tissue uptake at 0.05 h: 0.33 %ID/g
[13]
  tissue uptake at 0.5 min: 0.41 %ID/g
  tissue uptake at 1 min: 0.68 %ID/g
  tissue uptake at 5 min: 0.98 %ID/g
  tissue uptake at 10 min: 0.9 %ID/g
stomach, rats, 3 min, read-out: biodistribution stomach
  tissue uptake at 0.05 h: 2.08 %ID/g
[14]
  tissue uptake at 0.5 min: 0.81 %ID/g
  tissue uptake at 1 min: 0.66 %ID/g
  tissue uptake at 5 min: 1.16 %ID/g
  tissue uptake at 10 min: 0.55 %ID/g
tail, rats, 3 min, read-out: biodistribution tail
  tissue uptake at 0.05 h: 0.64 %ID/g
[15]
  tissue uptake at 0.5 min: 0.39 %ID/g
  tissue uptake at 1 min: 0.37 %ID/g
  tissue uptake at 5 min: 0.17 %ID/g
  tissue uptake at 10 min: 0.15 %ID/g
thymus, rats, 3 min, read-out: biodistribution thymus
  tissue uptake at 0.05 h: 0.27 %ID/g
[16]
  tissue uptake at 0.5 min: 1.41 %ID/g
  tissue uptake at 1 min: 1.71 %ID/g
  tissue uptake at 5 min: 0.58 %ID/g
  tissue uptake at 10 min: 0.44 %ID/g
thyroid, rats, 3 min, read-out: biodistribution thyroid
  tissue uptake at 0.05 h: 0.81 %ID/g
[17]
  tissue uptake at 0.5 min: 0.48 %ID/g
  tissue uptake at 1 min: 0.58 %ID/g
  tissue uptake at 5 min: 2.27 %ID/g
  tissue uptake at 10 min: 3.18 %ID/g
Total git, rats, 3 min, read-out: biodistribution tot GIT
  tissue uptake at 0.05 h: 1.56 %ID/g
rats
  liver versus kidney uptake: preference for the liver uptake as opposed to the kidney
rats, 3 min
  biodistribution blood: 1.32 % Injected dose per gram
  biodistribution liver: 5.93 % Injected dose per gram
